Test results from patent US8614064B2, “Methods of diagnosing atherosclerosis by measuring ApoCI” (The Johns Hopkins University, priority 2003, dated 2013).

How the values were obtained:
Src kinase = experiment: Analysis of p53/p56 Lyn (Src) kinase expression in AoSMC; format: cell-based, human; conditions: ApoCI-treated cells
Method: Confluent cultures of AoSMC were incubated with ApoCI (2.5 μg/ml medium), ApoCIII (2.5 μg/ml medium), ApoCI-enriched HDL (1 μg apoA-I/ml medium), or […] (5 μg apoA-I/ml medium). Cells were harvested in PBS at various time intervals and stored frozen in the presence of the protease inhibitor cocktail above. Western analysis for p53/p56 Lyn kinase was performed using primary anti-Lyn p53/p56 antibody (1:300) (Santa Cruz Biotechnology) and chemiluminescence (Amersham Pharmacia Biotech, Piscataway, N.J.).

SR-BI = experiment: Western measurement of scavenger receptor BI level in AoSMC; format: cell-based, human; conditions: ApoCI-treated cells
Method: (§1) Confluent cultures of AoSMC were preincubated with serum-free medium for 30 min and then treated with ApoCI (2.5 μg/ml medium), HMS (58.8 μg apoA-I/ml medium and 6.2 μg ApoCI/ml medium), and C2-Ceramide (30 μM). At indicated time periods cells were harvested in PBS and pellets lysed in 10 mM HEPES buffer (pH 7.4) 5 mM EDTA, 0.25 mM EGTA, 50 mM NaF, 0.35 M sucrose, 0.1% Nonidet P-40 and protease inhibitors 2 μg/ml aprotinin, 10 μg/ml leupeptin, 5 μg/ml pepstatin, and 1 mM PMSF. Protein concentration was determined using BCA-kit (Pierce, Rockford, Ill.). 100 μg of protein was subjected to electrophoresis in denaturing conditions on 4-15% polyacrylamide gel and electro transferred onto nitrocellulose (BioRad, Rochester, N.Y.). After the transfer, membranes were blocked for 1 h at room temperature in TBS-T/5% milk. Western assay was performed using rabbit caveolin-I (1:1000), SR-BI (1:5000) or goat ABCA1 (1:1000) primary antibody (Santa Cruz Biotechnology, Santa Cruz, Calif.) and horseradish peroxidase-conjugated anti-rabbit or anti-goat antibody (Amersham Pharmacia Biotech, Piscataway, N.J.). Blots were developed using ECL^plus Western blotting detection reagents (Amersham Pharmacia Biotech) and were scanned by laser densitometry. The intensity of the signals were quantified with the ImageGuant program (Molecular Dynamic, Sunnyvale, Calif.).

ceramide = experiment: Anti-ceramide antibody immunofluorescence microscopy in ASMC; format: cell-based, human; conditions: 24 h
Method: FIGS. 4A-4D depict the effect of ApoCI, ApoCI-enriched HDL, and ApoCI-poor HDL on the level of ceramide in ASMC. Confluent ASMC were incubated with ApoCI (2.5 μg/mL) with time (FIG. 4A, upper left) or with ApoCI-enriched HDL (1 μg apoA-I/mL medium) or ApoCI-poor HDL (5 μg apoA-I/mL medium) (FIG. 4B, upper right) for 30 minutes. FIG. 4C: The cells were incubated with ApoCI alone ([…]) for 5 minutes or preincubated with GW4869 (20 μmol/L) for 30 minutes. After addition of ApoCI (2.5 μg/mL), incubation was continued for 6 hours, 12 hours, and 24 hours. After incubation, cells were harvested and the levels of ceramide determined using the diacylglycerol kinase assay. The level of phosphate was measured and the data (mean±SD) were expressed as percentage of the total ceramide present in untreated cells (vehicle DMSO). *P<0.05. In a separate experiment (FIG. 4D, right), confluent cells were grown on cover slips and pretreated with serum-free medium for 30 minutes. The cells were then incubated with vehicle DMSO alone (control), ApoCI (2.5 μg/ML), or ApoCI (2.5 μg/mL) plus the N-SMase inhibitor GW4869 (20 μmol/L) for 24 hours. The cells were then washed, treated with a primary anticeramide antibody, washed with phosphate-buffered saline, and treated with a fluorescein isothiocyanate-conjugated anti-mouse IgG (FIG. 4C, lower panel).

ABC-A1 = experiment: Western measurement of ABC transporter ABCA1 level in AoSMC; format: cell-based, human; conditions: ApoCI-treated cells
Method: as §1

[1] = molecular target: T1, lecithin cholesterol acyl transferase (Homo sapiens, UniProt P04180); conditions: % of that of apoA-I; Soutar et al. 1975; cited from earlier work
T1 sequence (P04180 25-440): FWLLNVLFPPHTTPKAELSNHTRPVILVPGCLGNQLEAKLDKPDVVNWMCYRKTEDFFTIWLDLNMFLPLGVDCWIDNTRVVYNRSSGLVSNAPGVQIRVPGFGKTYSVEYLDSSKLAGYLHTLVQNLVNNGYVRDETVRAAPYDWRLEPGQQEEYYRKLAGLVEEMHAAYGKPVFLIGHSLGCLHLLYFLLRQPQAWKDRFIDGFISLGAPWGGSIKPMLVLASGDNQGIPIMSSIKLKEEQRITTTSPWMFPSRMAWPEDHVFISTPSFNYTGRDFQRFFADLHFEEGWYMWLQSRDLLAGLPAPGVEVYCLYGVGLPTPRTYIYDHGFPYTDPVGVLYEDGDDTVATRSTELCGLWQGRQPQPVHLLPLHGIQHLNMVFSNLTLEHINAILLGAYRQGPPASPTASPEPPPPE

caveolin = experiment: Western measurement of caveolin-I level in AoSMC; format: cell-based, human; conditions: ApoCI-treated cells
Method: as §1

acid sphingomyelinase = molecular target: T2, acid sphingomyelinase (Homo sapiens, UniProt P17405); experiment: Acid sphingomyelinase activity in cultured human ASMC (specificity of GW4869); format: cell-based; conditions: with GW4869; control 400 nmol/mg protein; did not alter
T2 construct: acid sphingomyelinase activity (control: 400 nmol/mg protein; GW4869: 340 nmol/mg protein) in cultured human ASMC; host or cells: cultured human ASMC
T2 sequence (P17405 47-631): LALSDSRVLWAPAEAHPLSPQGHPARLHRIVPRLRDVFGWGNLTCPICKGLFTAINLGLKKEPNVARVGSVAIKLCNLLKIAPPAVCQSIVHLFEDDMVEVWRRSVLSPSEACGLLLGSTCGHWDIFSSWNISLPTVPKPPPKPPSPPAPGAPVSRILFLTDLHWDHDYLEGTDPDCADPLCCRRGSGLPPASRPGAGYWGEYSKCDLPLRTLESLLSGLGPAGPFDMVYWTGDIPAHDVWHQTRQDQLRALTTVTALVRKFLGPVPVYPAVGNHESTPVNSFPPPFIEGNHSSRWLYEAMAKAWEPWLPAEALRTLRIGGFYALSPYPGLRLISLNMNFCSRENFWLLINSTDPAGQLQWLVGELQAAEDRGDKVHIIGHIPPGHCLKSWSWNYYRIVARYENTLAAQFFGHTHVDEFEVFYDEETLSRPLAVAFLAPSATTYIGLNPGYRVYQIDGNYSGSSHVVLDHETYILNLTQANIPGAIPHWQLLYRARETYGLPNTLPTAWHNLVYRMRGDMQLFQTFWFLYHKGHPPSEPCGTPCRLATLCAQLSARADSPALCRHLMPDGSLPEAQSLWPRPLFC

Compound	effect on Src kinase (Src kinase)	cellular level of the scavenger receptor binding protein (SR-BI) (SR-BI)	anti-ceramide immunofluorescence of treated cells (ceramide; ApoCI 2.5 μg/mL, compared with control cells)	cellular level of the ATP binding cassette (ABC-A1) protein (ABC-A1)	stimulation of lecithin cholesterol acyl transferase relative to apolipoprotein A-I [1]	level of caveolin (caveolin)	effect of GW4869 on ApoCI-induced ceramide immunofluorescence (ceramide; ApoCI 2.5 μg/mL plus GW4869 20 μmol/L)	acid sphingomyelinase activity (acid sphingomyelinase)
Apolipoprotein C-I (TPDVSSALDKLKEFGNTLEDKARELISRIKQSELSAKMREWFSETFQKVKEKLKIDS; UniProt P02654 27-83, looked up) [ApoCI, 6.6-kDa single-chain plasma protein of 57 amino acids; purified human ApoCI purchased from Academy Bio-Medical Company]	stimulated	transiently and significantly decreased	reacted strongly	transiently and significantly decreased	~80%	did not alter	–	–
O=C(/C=C/c1ccc(/C=C/C(=O)Nc2ccc(C3=NCCN3)cc2)cc1)Nc1ccc(C2=NCCN2)cc1 [GW4869]	–	–	–	–	–	–	eliminated	340 nmol/mg protein
